Reference: patent publication US9000179B2, “Inhibitors of proliferation and activation of signal transducer and activator of transcription (STATs)” (Board of Regents, The University of Texas System, priority 2008, dated 2015)

Key:
Assay type in all cases: cell-based
[1] = system: Colo357FG pancreatic cancer cell line; test: Antiproliferative activity, MTT cell viability; details: COLO 357/FG
Description: The antiproliferative activity of the Compound of Example 1 and Example 7 have been shown in a Colo357FG pancreatic cancer cell line as follows:
(§1) A variety of cell types were seeded at a density of 50,000 cells/100 μl per well onto 96-well plates and cultured for 24-48 h in DMEM medium until they reached confluency. At confluency, 25 μl of fresh media containing WP1220 at various concentrations (0 to 100 μM) was added to the wells and incubated for 72 h at 37° C. The complex was removed, 100 μl of fresh medium was added and the cells were incubated overnight. Medium was removed and fresh medium (100 μl) was added to each well along with (20 μl) MTT solution (5 mg/ml in PBS) before incubating the cells for a further 4 h at 37° C. The reaction product was solubilised with sodium dodecyl sulfate (100 μl, 10%, w/v) in 0.01 N HCl overnight before quantifying the product using a microplate reader at 590 nm and comparing with control cells. The experiment was carried out in triplicate (n=3).

[2] = system: STAT3; test: Western blot, inhibition of STAT3 phosphorylation in Colo357FG tumor cell line; details: FIG. 1
Description: (§2) Using phospho-tyrosine STAT3 (Y705), phospho-tyrosine Jak2 (Y1007/1008), total STAT3, total Jak2, Bcl-xL, actin (Cell Signaling Technology, Danvers, Mass.), and survivin (R&D Systems, Minneapolis, Minn.) antibodies, western blots were performed using the following methods. Briefly, (1) Samples were prepared from cells that were homogenized in a buffer protecting the protein of interest from degradation; (2) The sample was then separated using SDS-PAGE (10-15 μg protein/well) and then transferred to a membrane for detection; and (3) The membrane was incubated with a generic protein (milk proteins) to bind to any remaining sites on the membrane. A primary antibody was then added to the solution which is able to bind to its specific protein; (4) A secondary antibody-enzyme conjugate, which recognizes the primary antibody was then added to find locations where the primary antibody has bound.

[3] = system: STAT-3; test: Western blot, STAT-3 phosphorylation in D54 brain tumor cell lines; details: FIG. 4
Description: as §2

[4] = system: U87 brain tumor; test: Cell survival of U87 brain tumor (MTT); details: U87, FIG. 2
Description: as §1

[5] = system: SCOVE3 ovarian cancer cell; test: SCOVE3 ovarian cancer cell growth (MTT); details: SCOVE3, FIG. 3
Description: as §1

| IC50 [1] | Compound | cell survival of the U87 brain tumor [4] | inhibition of SCOVE3 ovarian cancer cell growth [5] | further results |
| --- | --- | --- | --- | --- |
| 3.2 µM | C[C@H](NC(=O)/C(C#N)=C/C=C/c1cccc(Br)n1)c1ccccc1 [Example 1, (2E,4E)-5-(6-bromopyridin-2-yl)-2-cyano-N-[(1S)-1-phenylethyl]penta-2,4-dienamide] | – | – | inhibition of STAT3 phosphorylation [2]: inhibition of STAT3 phosphorylation |
| – | CCC[C@H](NC(=O)/C(C#N)=C/C=C/c1cccc(Br)n1)c1ccccc1 [Example 9, (2E,4E)-5-(6-bromopyridin-2-yl)-2-cyano-N-[(1S)-1-phenylbutyl]penta-2,4-dienamide] | – | – | inhibition of IL-2 phosphorylation of STAT-3 [3]: constitutively inhibiting the IL-2 phosphorylation of STAT-3 |
| 5.4 µM | N#C/C(=C\C=C\c1cccc(Br)n1)C(=O)N[C@H](c1ccccc1)C1CC1 [Example 7, (2E,4E)-5-(6-bromopyridin-2-yl)-2-cyano-N-[(S)-cyclopropyl(phenyl)methyl]penta-2,4-dienamide] | – | – | – |
| – | C[C@H](NC(=O)/C(C#N)=C/C=C/c1cccc(Cl)n1)c1ccccc1 [Example 2, (2E,4E)-5-(6-chloropyridin-2-yl)-2-cyano-N-[(1S)-1-phenylethyl]penta-2,4-dienamide] | lack of cell survival | inhibition of the SCOVE3 ovarian cancer cell growth | – |
| – | N#C/C(=C\C=C\c1cccc(Br)n1)C(=O)NCc1ccccc1 [Example 4, (2E,4E)-N-benzyl-5-(6-bromopyridin-2-yl)-2-cyanopenta-2,4-dienamide] | lack of cell survival | inhibition of the SCOVE3 ovarian cancer cell growth | – |
